Numbers after ± are expanded uncertainties.
Assay: xn = mol fraction of the nth substance listed
Conditions: 100 kPa, Liquid; for viscosity: Concentric cylinders viscometry; for mass density: Vibrating tube method

CCOS(=O)(=O)[O-].CCn1cc[n+](C)c1 [1-ethyl-3-methylimidazolium ethyl sulfate] + CN1CCCC1=O
Conditions	mass density, 288.15 K [kg/m3]	mass density, 293.15 K [kg/m3]	mass density, 298.15 K [kg/m3]	mass density, 303.15 K [kg/m3]	mass density, 308.15 K [kg/m3]	viscosity, 288.15 K [mPa·s]	viscosity, 293.15 K [mPa·s]	viscosity, 298.15 K [mPa·s]	viscosity, 303.15 K [mPa·s]	viscosity, 308.15 K [mPa·s]
x1 = 0.1009	1079.2 ± 1.5	1074.95 ± 1.5	1070.72 ± 1.5	1066.49 ± 1.5	1062.28 ± 1.5	3.992 ± 0.044	3.554 ± 0.039	3.21 ± 0.036	2.908 ± 0.032	2.649 ± 0.03
x1 = 0.2012	1111.89 ± 1.5	1107.79 ± 1.5	1103.71 ± 1.5	1099.65 ± 1.5	1095.59 ± 1.5	7.313 ± 0.08	6.338 ± 0.069	5.637 ± 0.062	5.01 ± 0.055	4.488 ± 0.049
x1 = 0.3021	1138.72 ± 1.5	1134.75 ± 1.5	1130.79 ± 1.5	1126.85 ± 1.5	1122.93 ± 1.5	12.42 ± 0.14	10.51 ± 0.11	9.181 ± 0.1	8.026 ± 0.087	7.071 ± 0.077
x1 = 0.4012	1160.76 ± 1.5	1156.89 ± 1.5	1153.04 ± 1.5	1149.22 ± 1.5	1145.41 ± 1.5	19.71 ± 0.21	16.36 ± 0.18	14.03 ± 0.15	12.06 ± 0.13	10.47 ± 0.11
x1 = 0.4973	1178.79 ± 1.5	1175.02 ± 1.5	1171.26 ± 1.5	1167.52 ± 1.5	1163.8 ± 1.5	29.14 ± 0.31	23.79 ± 0.26	20.08 ± 0.22	17 ± 0.18	14.56 ± 0.16
x1 = 0.596	1194.97 ± 1.5	1191.28 ± 1.5	1187.6 ± 1.5	1183.95 ± 1.5	1180.31 ± 1.5	42.09 ± 0.45	33.7 ± 0.36	27.95 ± 0.3	23.38 ± 0.25	19.81 ± 0.21
x1 = 0.6998	1209.56 ± 1.5	1205.95 ± 1.5	1202.35 ± 1.5	1198.77 ± 1.5	1195.21 ± 1.5	59.32 ± 0.63	46.73 ± 0.5	38.08 ± 0.41	31.46 ± 0.34	26.22 ± 0.28
x1 = 0.7961	1221.74 ± 1.6	1218.2 ± 1.6	1214.66 ± 1.6	1211.15 ± 1.5	1207.65 ± 1.5	79 ± 0.93	61.57 ± 0.66	49.4 ± 0.53	40.33 ± 0.43	33.3 ± 0.36
x1 = 0.8821	1231.55 ± 1.6	1228.07 ± 1.6	1224.59 ± 1.6	1221.13 ± 1.6	1217.69 ± 1.6	104.25 ± 1.4	80.25 ± 0.96	63.39 ± 0.68	51.1 ± 0.53	41.58 ± 0.45
x1 = 1	1243.07 ± 1.6	1239.66 ± 1.6	1236.27 ± 1.6	1232.87 ± 1.6	1229.49 ± 1.6	155.55 ± 2.7	117.88 ± 1.8	91.26 ± 1.2	72.1 ± 0.81	57.98 ± 0.61
